IC50 data for 28 compounds are collected here from BindingDB's records for doi:10.1016/j.ejmech.2012.02.023 (Sun Yat-Sen University, 2012).

The nature of this experiment: Inhibition of TNF-alpha-induced NF-kappaB p65 nuclear translocation in human A549 cells after 2 hrs by fluorescence assay.

Molecules are shown by their SMILES.

Take `O=C(/C=C/c1ccc(Cl)cc1)c1cccc(-c2cccc(F)c2)c1`: the half-maximal inhibitory concentration (IC50) (as a rule, the concentration at which inhibition is half-maximal) was 24.4 µM.
Regarding `O=C(/C=C/c1cccc(Br)c1)c1cccc(-c2cccc(F)c2)c1`, half-maximal inhibition (IC50) was put at 11.2 µM.
In turn, `COc1ccccc1/C=C/C(=O)c1cccc(-c2cccc(F)c2)c1` registered a half-inhibitory concentration (IC50) of 35.3 µM.
`COc1ccc(/C=C/C(=O)c2cccc(-c3cccc(F)c3)c2)cc1`: the concentration for half-maximal inhibition (IC50) was > 50 µM.
Regarding `COc1ccc(/C=C/C(=O)c2cccc(-c3cccc(F)c3)c2)cc1OC`, the IC50 worked out at 33.4 µM.
For `COc1cccc(/C=C/C(=O)c2cccc(-c3cccc(F)c3)c2)c1OC`, the 50% inhibitory concentration (IC50) was 24.1 µM.
`COc1cc(/C=C/C(=O)c2cccc(-c3cccc(F)c3)c2)ccc1O` registered an IC50 of 12.9 µM.
For `O=C(/C=C/c1ccccc1Br)c1cccc(-c2cccc(F)c2)c1`, the IC50 worked out at 13.7 µM.
`O=C(/C=C/c1ccc(Br)cc1)c1cccc(-c2cccc(F)c2)c1`: the IC50 was > 50 µM.
For the compound `O=C(/C=C/c1cccc(-c2ccc(F)cc2)c1)c1ccc(F)cc1`, the half-inhibitory concentration (IC50) is > 50 µM.
In the case of `COc1ccc(/C=C/C(=O)c2ccc(N)c(-c3ccc(F)cc3)c2)cc1`, the IC50 is > 50 µM.
The figure for `COc1ccc(/C=C/C(=O)c2ccc(N)c(-c3ccc(F)cc3)c2)cc1OC` is > 50 µM; for `COc1ccc(OC)c(/C=C/C(=O)c2ccc(N)c(-c3ccc(F)cc3)c2)c1` it is 10.3 µM; for `COc1cc(/C=C/C(=O)c2ccc(N)c(-c3ccc(F)cc3)c2)ccc1O` it is 6.83 µM.
`COc1cc(/C=C/C(=O)c2ccc(N)c(-c3ccc(F)cc3)c2)cc(OC)c1OC` gave a 50% inhibitory concentration (IC50) of 11.6 µM.
Consider `Nc1ccc(C(=O)/C=C/c2ccc(O)c(F)c2)cc1-c1ccc(F)cc1`, for which the half-maximal inhibitory concentration (IC50) is > 50 µM.
On to `COc1cc(/C=C/C(=O)c2ccc(N)c(-c3ccc(F)cc3)c2)cc(Br)c1O`, for which the IC50 was > 50 µM.
The compound `COc1ccc(-c2cc(C(=O)/C=C/c3ccc(F)cc3)ccc2N)cc1OC` yielded a half-maximal inhibitory concentration (IC50) of 21.3 µM.
Compound `COc1ccc(/C=C/C(=O)c2ccc(N)c(-c3ccc(OC)c(OC)c3)c2)c(OC)c1` came in with an IC50 of 1.7 µM.
The figure for `COc1ccc(OC)c(/C=C/C(=O)c2ccc(N)c(-c3ccc(OC)c(OC)c3)c2)c1` is 3.19 µM; for `COc1ccc(-c2cc(C(=O)/C=C/c3cccc(OC)c3OC)ccc2N)cc1OC` it is 11.9 µM.
Turning to `COc1ccc(/C=C/C(=O)c2cccc(Br)c2)cc1`, the concentration for half-maximal inhibition (IC50) is > 50 µM.
Take `COc1ccc(/C=C/C(=O)c2cccc(Br)c2)cc1OC`: the IC50 is > 50 µM.
As to `COc1ccc(/C=C/C(=O)c2cccc(Br)c2)cc1O`, the concentration for half-maximal inhibition (IC50) is > 50 µM.
In the case of `COc1ccc(/C=C/C(=O)c2cccc(-c3ccc(F)cc3)c2)cc1`, the IC50 is > 50 µM.
For the compound `COc1ccc(/C=C/C(=O)c2cccc(-c3ccc(F)cc3)c2)cc1OC`, the IC50 is > 50 µM.
With `COc1ccc(/C=C/C(=O)c2cccc(-c3cccc(F)c3)c2)cc1O`, 9.59 µM corresponded to half-maximal inhibition (IC50).
Regarding `COc1ccc(/C=C/C(=O)c2cccc(-c3ccc(F)nc3)c2)cc1O`, the IC50 is > 50 µM.
